# Source: patent US20050192279A1, “Pyridazinones as antagonists of alpha4 integrins” (priority 2004, published 2005)
# pIC50: −log10 of the molar value. Where two headings read alike, the source gives them in different places.
# Columns and labels:
# [1] = target: T1, α4β1 (Homo sapiens, UniProt P05556+P13612); test: Ramos Cell Adhesion Assay (α4β1 Mediated Adhesion/VCAM-1); type: cell-based
# T1 construct: Ramos Cell Adhesion Assay (α4β1 Mediated Adhesion/VCAM-1); endogenous in cells; host or cells: Ramos cells
# T1 sequence (P05556 21-798, one chain of several): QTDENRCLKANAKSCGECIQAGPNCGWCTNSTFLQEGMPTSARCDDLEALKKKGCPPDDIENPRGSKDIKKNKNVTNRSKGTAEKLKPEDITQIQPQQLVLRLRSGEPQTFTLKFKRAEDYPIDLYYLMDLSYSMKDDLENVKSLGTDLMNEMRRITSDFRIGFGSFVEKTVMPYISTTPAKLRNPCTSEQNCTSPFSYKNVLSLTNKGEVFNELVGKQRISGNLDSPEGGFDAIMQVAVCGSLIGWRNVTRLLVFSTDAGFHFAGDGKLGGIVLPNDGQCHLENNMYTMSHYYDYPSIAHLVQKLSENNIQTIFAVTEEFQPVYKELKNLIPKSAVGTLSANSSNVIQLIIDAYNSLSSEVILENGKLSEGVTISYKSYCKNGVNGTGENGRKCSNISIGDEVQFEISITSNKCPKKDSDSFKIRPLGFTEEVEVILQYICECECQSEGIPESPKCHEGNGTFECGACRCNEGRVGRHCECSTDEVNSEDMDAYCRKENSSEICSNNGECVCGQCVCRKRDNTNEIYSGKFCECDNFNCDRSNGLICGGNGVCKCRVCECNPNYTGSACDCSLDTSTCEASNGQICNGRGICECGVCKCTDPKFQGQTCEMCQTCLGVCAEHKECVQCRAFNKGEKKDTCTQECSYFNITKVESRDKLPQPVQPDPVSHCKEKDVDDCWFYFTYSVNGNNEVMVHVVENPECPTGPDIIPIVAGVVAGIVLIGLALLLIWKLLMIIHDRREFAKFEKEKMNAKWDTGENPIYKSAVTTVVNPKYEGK
# Procedure, shortened: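 Plates coated overnight at 4° C with recombinant hVCAM-1 at 4.0 μg/mL, pH 9.0, then blocked in PBS/1% BSA. Calcein AM-labeled Ramos cells added with compounds and left to adhere 1 h at room temperature; after washing, cells lysed in 1 M Tris pH 8.0/1% SDS.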
# [2] = target: T2, human α4β7 integrin (Homo sapiens, UniProt P13612+P26010); test: α4β7-K562 Cell Adhesion Assay (α4β7 Mediated Adhesion/MAdCAM-1); type: cell-based
# T2 construct: expressed in transfected cells; host or cells: K562 cells, stably transfected
# T2 sequence (P13612 34-1032): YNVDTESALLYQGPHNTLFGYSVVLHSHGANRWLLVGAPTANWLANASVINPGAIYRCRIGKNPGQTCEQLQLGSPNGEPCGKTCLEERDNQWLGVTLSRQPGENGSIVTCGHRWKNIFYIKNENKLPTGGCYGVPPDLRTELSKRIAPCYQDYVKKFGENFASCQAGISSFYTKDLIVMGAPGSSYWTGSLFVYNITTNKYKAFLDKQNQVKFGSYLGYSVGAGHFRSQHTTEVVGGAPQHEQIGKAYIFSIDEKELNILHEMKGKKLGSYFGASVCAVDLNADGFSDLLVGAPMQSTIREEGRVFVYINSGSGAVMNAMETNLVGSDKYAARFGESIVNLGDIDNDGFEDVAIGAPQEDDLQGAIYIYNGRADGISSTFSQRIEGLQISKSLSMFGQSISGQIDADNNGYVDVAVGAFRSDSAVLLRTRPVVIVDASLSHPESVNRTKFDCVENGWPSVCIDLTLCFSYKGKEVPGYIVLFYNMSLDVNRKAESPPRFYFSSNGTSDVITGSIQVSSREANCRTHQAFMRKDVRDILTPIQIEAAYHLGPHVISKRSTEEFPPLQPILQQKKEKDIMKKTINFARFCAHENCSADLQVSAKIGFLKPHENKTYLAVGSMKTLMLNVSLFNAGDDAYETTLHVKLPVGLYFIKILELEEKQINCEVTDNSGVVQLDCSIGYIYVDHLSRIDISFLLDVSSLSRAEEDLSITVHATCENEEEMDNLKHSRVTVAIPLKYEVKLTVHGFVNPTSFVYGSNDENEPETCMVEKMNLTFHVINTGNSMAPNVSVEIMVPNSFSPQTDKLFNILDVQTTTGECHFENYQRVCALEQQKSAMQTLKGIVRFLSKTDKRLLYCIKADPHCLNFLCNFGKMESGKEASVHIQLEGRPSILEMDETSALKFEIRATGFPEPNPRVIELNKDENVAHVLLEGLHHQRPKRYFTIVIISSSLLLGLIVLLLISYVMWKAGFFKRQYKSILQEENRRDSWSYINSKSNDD
# T2 sequence (P26010 20-798): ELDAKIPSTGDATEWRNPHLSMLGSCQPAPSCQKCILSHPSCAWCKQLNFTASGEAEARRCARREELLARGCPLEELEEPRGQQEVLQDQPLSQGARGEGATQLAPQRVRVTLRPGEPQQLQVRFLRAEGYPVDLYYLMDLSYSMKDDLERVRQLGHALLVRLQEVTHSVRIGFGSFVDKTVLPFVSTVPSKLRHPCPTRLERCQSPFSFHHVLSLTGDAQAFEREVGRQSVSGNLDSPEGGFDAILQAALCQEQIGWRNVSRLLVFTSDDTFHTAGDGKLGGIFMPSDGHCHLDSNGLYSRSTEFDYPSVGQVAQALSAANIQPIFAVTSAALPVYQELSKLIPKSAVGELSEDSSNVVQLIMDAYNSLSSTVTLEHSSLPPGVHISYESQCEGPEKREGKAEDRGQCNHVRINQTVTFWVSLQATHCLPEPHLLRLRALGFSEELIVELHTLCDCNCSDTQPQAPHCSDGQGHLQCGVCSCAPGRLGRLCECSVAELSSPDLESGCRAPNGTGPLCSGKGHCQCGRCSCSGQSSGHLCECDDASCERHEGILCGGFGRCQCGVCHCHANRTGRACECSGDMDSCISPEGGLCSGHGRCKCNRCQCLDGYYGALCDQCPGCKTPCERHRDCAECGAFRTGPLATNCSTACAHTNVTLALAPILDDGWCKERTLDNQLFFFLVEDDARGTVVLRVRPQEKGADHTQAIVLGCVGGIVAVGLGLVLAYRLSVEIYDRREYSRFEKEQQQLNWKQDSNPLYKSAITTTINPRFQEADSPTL
# Procedure, shortened: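 Anti-FLAG plates coated 1 h at 4° C with FLAG-hMAdCAM-1 in PBS pH 7.4, 1% BSA, 1 mM Mn2+. Stably transfected K562 cells expressing human α4β7, labelled with CFDA-SE, adhered with compound 1 h at room temperature. After four washes, bound cells lysed in 0.1 M NaOH for fluorescence read-out.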
# [3] = Ramos cell adhesion to hVCAM-1, read-out: α4β1 IC50
# [4] = α4β7-K562 cell adhesion to hMAdCAM-1, read-out: α4β7 IC50
"pIC50 [1, 3]","pIC50 [2, 4]",SMILES,"pIC50 ([1]; α4β1 IC50, Ramos cell adhesion to hVCAM-1)","pIC50 ([2]; α4β7 IC50, α4β7-K562 cell adhesion to hMAdCAM-1)"
5.83,6.86,CN[C@H](C(=O)N[C@@H](Cc1ccc(-c2c(OC)cnn(CCN3CCOCC3)c2=O)cc1)C(=O)O)[C@@H](C)OCc1ccccc1 [Cpd 128],,
< 6.00,6.85,COc1cnn(C)c(=O)c1-c1ccc(C[C@H](NC(=O)[C@H](O)C(C)C)C(=O)O)cc1 [Cpd 129],,
< 6.00,6.83,COc1ccc2cc(C(=O)N[C@@H](Cc3ccc(-c4c(OC)cnn(C)c4=O)cc3)C(=O)O)c(=O)oc2c1 [Cpd 130],,
< 5.30,6.82,"O=C(N[C@@H](Cc1ccc(-c2c(-n3nccc3-c3cccs3)cnn(CCO)c2=O)cc1)C(=O)O)c1c(Cl)cccc1Cl [Cpd 131, (S)-2-(2,6-Dichloro-benzoylamino)-3-{4-[2-(2-hydroxy-ethyl)-3-oxo-5-(5-thiophen-2-yl-pyrazol-1-yl)-2,3-di hydro-pyridazin-4-yl]-phenyl}-propionic acid]",,
< 5.30,6.82,COc1cnn(C)c(=O)c1-c1ccc(C[C@H](NC(=O)C2(c3ccc(F)cc3)CCCC2)C(=O)O)cc1 [Cpd 132],,
5.89,8.00,COc1cnn(C)c(=O)c1-c1ccc(CC(NC(=O)C2(C(=O)NC(Cc3ccc(-c4c(OC)cnn(C)c4=O)cc3)C(=O)O)CC2)C(=O)O)cc1 (stereo not shown) [Cpd 133],,
< 6.00,6.78,COc1cnn(C)c(=O)c1-c1ccc(C[C@H](NC(=O)C23CCC(CC2)CN3C)C(=O)O)cc1 [Cpd 135],,
5.94,6.75,"COc1cnn(C)c(=O)c1-c1ccc(C[C@H](NC(=O)C2C(C)(C)C2(C)C)C(=O)O)cc1 [Cpd 136, (S)-3-[4-(5-Methoxy-2-methyl-3-oxo-2,3-dihydro-pyridazin-4-yl)-phenyl]-2-[(2,2,3,3-tetramethyl-cyclopropanecarbonyl)-amino]-propionic acid]",,
6.02,6.70,COc1cnn(C)c(=O)c1-c1ccc(C[C@H](NC(=O)c2ccc(C(=O)O)cc2)C(=O)O)cc1 [Cpd 137],,
6.29,6.69,COc1cnn(C)c(=O)c1-c1ccc(C[C@H](NC(=O)c2c(C)cc(C)nc2N)C(=O)O)cc1 [Cpd 138],,
6.50,6.64,COc1cnn(C)c(=O)c1-c1ccc(C[C@H](NC(=O)C23CCC(CC2)CN3C(=O)CCC2CCNCC2)C(=O)O)cc1 [Cpd 139],,
< 6.00,6.64,CCOc1cnn(C(C)(C)C)c(=O)c1-c1ccc(C[C@H](NC(=O)c2c(Cl)cccc2Cl)C(=O)O)cc1 [Cpd 142],,
< 6.00,6.61,COc1cnn(C)c(=O)c1-c1ccc(C[C@H](NC(=O)C(=O)C(C)C)C(=O)O)cc1 [Cpd 143],,
< 5.30,6.60,COc1cnn(C)c(=O)c1-c1ccc(C[C@H](NC(=O)c2cnoc2C)C(=O)O)cc1 [Cpd 147],,
< 5.30,6.58,Cn1ncc(-n2nccc2-c2cccs2)c(-c2ccc(C[C@H](NC(=O)c3c(Cl)cccc3Cl)C(=O)O)cc2)c1=O [Cpd 148],,
6.81,6.57,CN(C)CCOc1cnn(C)c(=O)c1-c1ccc(C[C@H](NC(=O)c2c(Cl)cccc2Cl)C(=O)O)cc1 [Cpd 150],,
< 5.30,6.55,Cn1ncc(CC(=O)O)c(-c2ccc(C[C@H](NC(=O)c3c(Cl)cccc3Cl)C(=O)O)cc2)c1=O [Cpd 152],,
5.69,6.53,"COc1cnn(C)c(=O)c1-c1ccc(CC(NC(=O)C(NC(C)C)C(C)C)C(=O)O)cc1 (stereo not shown) [Cpd 153, 2-(2-Isopropylamino-3-methyl-butyrylamino)-3-[4-(5-methoxy-2-methyl-3-oxo-2,3-dihydro-pyridazin-4-yl)-phenyl]-propionic acid]",,

"pIC50 [1, 3]","pIC50 [2, 4]",SMILES,"pIC50 ([1]; α4β1 IC50, Ramos cell adhesion to hVCAM-1)","pIC50 ([2]; α4β7 IC50, α4β7-K562 cell adhesion to hMAdCAM-1)"
< 5.30,6.48,COc1cnn(CCN2CCOCC2)c(=O)c1-c1ccc(C[C@H](NC(=O)[C@@H](NC(=O)OC(C)(C)C)[C@@H](C)O)C(=O)O)cc1 [Cpd 154],,
< 6.00,6.48,CN(C)c1cnn(C(C)(C)C)c(=O)c1-c1ccc(C[C@H](NC(=O)c2c(Cl)cccc2Cl)C(=O)O)cc1 [Cpd 155],,
< 5.30,6.47,CNc1cnn(C)c(=O)c1-c1ccc(C[C@H](NC(=O)c2c(Cl)cccc2Cl)C(=O)O)cc1 [Cpd 156],,
< 5.30,6.45,COc1cnn(C)c(=O)c1-c1ccc(C[C@H](NC(=O)CN(C)C(=O)OC(C)(C)C)C(=O)O)cc1 [Cpd 157],,
< 5.30,6.44,COc1cnn(C)c(=O)c1-c1ccc(C[C@H](NC(=O)C(N)C(C)C)C(=O)O)cc1 (stereo partly shown) [Cpd 159],,
6.21,6.44,CC(C)(C)n1ncc(-n2cncn2)c(-c2ccc(C[C@H](NC(=O)c3c(Cl)cccc3Cl)C(=O)O)cc2)c1=O [Cpd 160],,
,,Cn1ncc(NCCCl)c(-c2ccc(C[C@H](NC(=O)c3c(Cl)cccc3Cl)C(=O)O)cc2)c1=O [Cpd 162],< 5.30,6.39
< 5.30,6.37,COc1cnn(C)c(=O)c1-c1ccc(C[C@H](NC(=O)c2cc(=O)[nH]c(=O)[nH]2)C(=O)O)cc1 [Cpd 163],,
< 5.30,6.34,COc1cnn(C)c(=O)c1-c1ccc(C[C@H](NC(=O)C2CCN(C(=O)OCc3ccccc3)CC2)C(=O)O)cc1 [Cpd 164],,
< 5.30,6.32,COc1cnn(CCN2CCOCC2)c(=O)c1-c1ccc(C[C@H](NC(=O)[C@H](NC(=O)OC(C)(C)C)[C@H](C)O)C(=O)O)cc1 [Cpd 167],,
< 6.00,6.31,O=C(N[C@@H](Cc1ccc(-c2c(O)cn[nH]c2=O)cc1)C(=O)O)c1c(Cl)cccc1Cl [Cpd 168],,
5.55,6.29,COc1cnn(C)c(=O)c1-c1ccc(C[C@H](NC(=O)c2ccc(CO)cc2)C(=O)O)cc1 [Cpd 170],,
< 5.30,6.27,COc1cnn(C)c(=O)c1-c1ccc(C[C@H](NC(=O)OCC(C)(C)C)C(=O)O)cc1 [Cpd 171],,
< 5.30,6.24,"COc1cnn(C)c(=O)c1-c1ccc(C[C@H](NC(=O)OCc2ccccc2)C(=O)O)cc1 [Cpd 172, (S)-2-Benzyloxycarbonylamino-3-[4-(5-methoxy-2-methyl-3-oxo-2,3-dihydro-pyridazin-4-yl)-phenyl]-propionic acid]",,
< 5.30,6.24,COc1cnn(C)c(=O)c1-c1ccc(C[C@H](NC(=O)CN(C)C)C(=O)O)cc1 [Cpd 173],,
< 5.30,6.23,COc1cnn(C)c(=O)c1-c1ccc(C[C@H](NC(=O)OCC(C)C)C(=O)O)cc1 [Cpd 175],,
< 5.30,6.79,COc1cnn(C)c(=O)c1-c1ccc(C[C@H](NC(=O)C2(NC(=O)OC(C)(C)C)CC2)C(=O)O)cc1 [Cpd 177],,
